The subject of data set [1] is KB-7d (MRP-pleotrophic multidrug-resistant KB sub-clone). Nature of the data set: Cell growth inhibition (standard SRB assay), KB-7d. It counts as cell-based, human. The note with it: 3 days of continuous treatment, read-out: Cell growth inhibition ED50. For orientation: The SRB assay estimates cell density from bound dye.
In data set [2] the test system is DNA topoisomerase II. Nature of the data set: In vitro topoisomerase II inhibition, plasmid relaxation/cleavage assay. The class given is biochemical. Conditions: for Minimum concentration to detect linear DNA: DNA topoisomerase II inhibition; for Relative activity as topoisomerase II inhibitor versus standards: compared with GL-331 and etoposide.
The subject of data set [3] is KB cells. Nature of the data set: Clonogenic assay. The class given is cell-based, human. The note with it: 5 μM for 30 minutes, colonies after 12 days. As for the experimental part:
(§1) Biological Assay and Results. […] Freshly trypsinized KB cells were exposed to drug at 5, 0.5, or 0.05 μM for 30 minutes, respectively. Then, 250 or 500 cells were immediately plated and left undisturbed for 12 days. Colonies were fixed with formalin and stained with toluidine blue.

The test system of data set [4] is KB (nasopharyngeal carcinoma). Nature of the data set: Cell growth inhibition (standard SRB assay), KB. It counts as cell-based, human. Conditions: 3 days of continuous treatment, read-out: Cell growth inhibition ED50.
Data set [5] concerns A549 (lung adenocarcinoma). Nature of the data set: Cell growth inhibition (standard SRB assay), A549. It counts as cell-based, human. The note with it: 3 days of continuous treatment, read-out: Cell growth inhibition ED50.
For data set [6], the system named is A549 (lung adenocarcinoma). Nature of the data set: Cytotoxicity (cell killing after 30 minutes of treatment), A549. The note with it: kills 50% of the cells after 30 minutes of treatment.
Data set [7] relates to KB (nasopharyngeal carcinoma). Nature of the data set: Cytotoxicity (cell killing after 30 minutes of treatment), KB. Conditions: kills 50% of the cells after 30 minutes of treatment. The method, then: as §1
Data set [8] relates to MCF-7 (breast adenocarcinoma). Nature of the data set: Cell growth inhibition (standard SRB assay), MCF-7. It counts as cell-based, human. The note with it: 3 days of continuous treatment, read-out: Cell growth inhibition ED50.
Data set [9] has as its system KB-7d (MRP-pleotrophic multidrug-resistant KB sub-clone). Nature of the data set: Cytotoxicity (cell killing after 30 minutes of treatment), KB-7d. The note with it: kills 50% of the cells after 30 minutes of treatment. As for the experimental part: as §1
Data set [10] relates to MCF-7 (breast adenocarcinoma). Nature of the data set: Cytotoxicity (cell killing after 30 minutes of treatment), MCF-7. The note with it: kills 50% of the cells after 30 minutes of treatment.

In general, % Inhibition refers to the relative decrease from the control value, in per cent.

Like-named read-outs stand apart in the source and are kept apart here. Some results are limits rather than exact numbers.

Take “4′-O-demethyl-4β-[4″-(methyl L-tryptophan-N-carbonyl)-anilino]-4-desoxypodophyllotoxin [Compound 13]”: in data set [1], the EC50 is under 100 nM. In [2], the “Minimum concentration to detect linear DNA” value (“Minimum concentration” below) turned out to be 5 µM; the “Relative activity as topoisomerase II inhibitor versus standards” value was “at least as active as GL-331 and four-fold more active than etoposide”. Moreover, the “% Inhibition” value in data set [3] stood at 82%. The EC50 in data set [4] stood at 750 nM.
Regarding “4′-O-demethyl-4β-{4″-[4′″-(benzimidazol-2″″-yl)-amido]-anilino}-4-desoxypodophyllotoxin [Compound 14]”, in [4], the EC50 is over 25000 nM.
Consider `COc1cc(C2c3cc4c(cc3C(NC(=O)[C@H](Cc3ccc(O)cc3)NC(=O)OCc3ccccc3)C3COC(=O)C23)OCO4)cc(OC)c1O` (stereo partly drawn) [Compound 10, 4′-O-demethyl-4β-[(N—CBZ-L-tyrosine-carbonyl)-amino]-4-desoxy-podophyllotoxin], for which the EC50 in [5] is over 20000 nM; in data set [1], 6700 nM; in data set [4] it was 2300 nM.
Take `COC(=O)[C@H](Cc1ccc(O)cc1)NC(=O)c1ccc(NC2c3cc4c(cc3C(c3cc(OC)c(O)c(OC)c3)C3C(=O)OCC23)OCO4)cc1` (stereo partly drawn) [Compound 12, 4′-O-demethyl-4β-[4″-(methyl L-tyrosine-N-carbonyl)-anilino]-4-desoxy-podophyllotoxin]: the “Cytotoxicity LD50” value was 12.5 µM in data set [6], 1.7 µM in data set [7], under 20 µM in data set [9] and under 3.1 µM in data set [10]. Besides, the EC50 turned out to be 2400 nM in data set [5], 5000 nM in [1], 4500 nM in [8] and 1900 nM in data set [4]. In data set [2], the “Minimum concentration” value stood at 5 µM. Further, in data set [2], the “Relative activity as topoisomerase II inhibitor versus standards” value is “at least as active as GL-331 and four-fold more active than etoposide”. Further, the “% Inhibition” value in [3] worked out at 99.5%.
As to `COc1cc([C@@H]2c3cc4c(cc3[C@@H](O[C@@H]3O[C@@H]5CO[C@@H](C)O[C@H]5[C@H](O)[C@H]3O)[C@H]3COC(=O)[C@H]23)OCO4)cc(OC)c1O` [Etoposide], the “Cytotoxicity LD50” value in data set [6] is over 50 µM; in data set [7], 49.0 µM; in data set [9], over 50 µM; in [10] it was 21 µM. Moreover, the EC50 was 5200 nM in data set [5] (Homo sapiens, 72 h); over 10000 nM in data set [1] (Homo sapiens, KB7D, 72 h); over 20000 nM in data set [8] (Homo sapiens, MCF7, 72 h); 750 nM in [4] (Homo sapiens, 72 h). Besides, in [2], the “Minimum concentration” value was 20 µM.
In the case of `COc1cc([C@@H]2c3cc4c(cc3[C@@H](Nc3ccc([N+](=O)[O-])cc3)[C@H]3COC(=O)[C@H]23)OCO4)cc(OC)c1O` [GL-331, reference compound], the “Cytotoxicity LD50” value in data set [6] is 6.6 µM; in [7], 9.9 µM; in data set [9] it was under 50 µM; in data set [10], 5.3 µM. Besides, the EC50 in data set [5] came out at 700 nM; in data set [1], 1900 nM; in [8], 12000 nM; in data set [4], 300 nM. The “Minimum concentration” value in data set [2] amounted to 5 µM. Further, the “% Inhibition” value in data set [3] came to 46%.

Values taken from patent publication US6872841B2 (The University of North Carolina at Chapel Hill, priority 2002, dated 2005).
